Where two headings read alike, the source gives them in different places.
Columns and labels:
Sagittaria trifolia [1] = test: Greenhouse transplant rice test, ST; assay type: in vivo; conditions: for inhibition at 280 g/ha / inhibition at 560 g/ha / inhibition at 1120 g/ha / inhibition at 2240 g/ha: Sagittaria trifolia, about 3 WAT, read-out: Percent Inhibition, ST; for inhibition at 280 g/ha: 0.28 Kg/Ha; for inhibition at 560 g/ha: 0.56 Kg/Ha; for inhibition at 1120 g/ha: 1.12 Kg/Ha; for inhibition at 2240 g/ha: 2.24 Kg/Ha
From the text: (§1) The test procedure used in this greenhouse test is as follows: Ray silt loam top soil containing about 0.05% by weight of krillium and sifted through a […] screen is fumigated about 5-10 days prior to use. Pots are then filled with said Ray silt loam soil to a level to allow for a 1 in. (2.54 cm) flooding depth. Rice plants (Bluebelle) of 2 to 3 weeks age are transplanted to the pots and bulbs or seeds of the test weeds also planted in the pots. The pots are then flooded and the test chemical applied to the surface of the flood water. The flood water is reduced to allow for germination of the Echinochloa crus-galli (barnyardgrass) seed and subsequently reflooded and maintained in that condition. Observations of percent inhibition using a scale of 0-100% are made about 3 weeks after transplant (WAT).
(§2) The test data in Table III for all compounds was obtained under identical test conditions. The weeds used in the tests herein have the following abbreviations in the tables: Echinochloa crus-galli (EC), Monochloria vaginalis (MV), Cyperus Serotinus (CS), Eleocharis Kuroguwai (EK) and Sagittaria trifolia (ST).

Cyperus serotinus [2] = test: Greenhouse transplant rice test, CS; assay type: in vivo; conditions: about 3 WAT, read-out: Percent Inhibition, CS; for inhibition at 280 g/ha: 0.28 Kg/Ha; for inhibition at 560 g/ha: 0.56 Kg/Ha; for inhibition at 1120 g/ha: 1.12 Kg/Ha; for inhibition at 2240 g/ha: 2.24 Kg/Ha
From the text: as §1, §2

Rice [3] = test: Greenhouse transplant rice test, rice injury; assay type: in vivo, Rice (Bluebelle); conditions: Oryza sativa, about 3 WAT, read-out: Percent Inhibition, Rice; for inhibition at 280 g/ha: 0.28 Kg/Ha; for inhibition at 560 g/ha: 0.56 Kg/Ha; for inhibition at 1120 g/ha: 1.12 Kg/Ha; for inhibition at 2240 g/ha: 2.24 Kg/Ha
From the text: as §1, §2

Sagittaria trifolia [4] = test: Field transplant rice test, applied 9 DAT, ST; assay type: in vivo; conditions: 216 h, read-out: Percent Inhibition, ST; for inhibition at 375 g/ha: 0.375 Kg/Ha; for inhibition at 750 g/ha: 0.75 Kg/Ha; for inhibition at 1500 g/ha: 1.5 Kg/Ha; for inhibition at 3000 g/ha: 3.0 Kg/Ha
Experimental: as §2
(§3) In further comparative tests, a preferred compound of this invention (Example 1) was tested in the field with prior art Compounds A-D. These tests were conducted under conditions reflecting herbicide application times generally favorable to all herbicides in the test. The timing of application of herbicides to transplant rice is very important, whether, as in some instances, prior to transplanting the rice; in other instances, at the time of transplanting or else after transplanting. Application times are conventionally referred to as "days before transplant" (DBT) or "days after transplant" ("DAT"). The field test data in Table IV was obtained from a test in which the herbicides were applied at the time of transplant, i.e., "0 DAT", with observations being made weekly up to six weeks after transplant ("WAT") beginning at two weeks after transplant; for illustrative and representative purposes, only the early, middle and late period observations, i.e., 2 WAT, 4 WAT and 6 WAT, are shown in Table IV. The data in Table IV is for rates of application common to all herbicides in the test, i.e., from 3.0 kg/ha (2.67 lb/A) down to 0.375 kg/ha (0.34 lb/A). All herbicides were applied at their actual or expected use rates, i.e., as granules containing 2.5% by weight herbicide for the compound of Example 1, Compounds B, C and D and 5.0% by weight for Compound A.
(§4) In Table V are presented field data showing the relative performance of the compound of Example 1 and Compounds A-D applied 9 DAT, with observations being made weekly from 3 WAT to 7 WAT; again, for illustrative and representative purposes, only the early, middle and late period observations are reported in Table V, the herbicide rates and concentrations of active ingredients the same as is shown in Table IV.

Cyperus serotinus [5] = test: Field transplant rice test, applied 0 DAT, CS; assay type: in vivo; conditions: 0 h, read-out: Percent Inhibition, CS; for inhibition at 375 g/ha: 0.375 Kg/Ha; for inhibition at 750 g/ha: 0.75 Kg/Ha; for inhibition at 1500 g/ha: 1.5 Kg/Ha; for inhibition at 3000 g/ha: 3.0 Kg/Ha
Experimental: as §2, §3

Echinochloa crus-galli = test: Field transplant rice test, applied 0 DAT, EC; assay type: in vivo; conditions: 0 h, read-out: Percent Inhibition, EC; for inhibition at 375 g/ha: 0.375 Kg/Ha; for inhibition at 750 g/ha: 0.75 Kg/Ha; for inhibition at 1500 g/ha: 1.5 Kg/Ha; for inhibition at 3000 g/ha: 3.0 Kg/Ha
Experimental: as §2, §3

Rice [6] = test: Field transplant rice test, applied 9 DAT, rice injury; assay type: in vivo; conditions: for inhibition at 375 g/ha / inhibition at 750 g/ha / inhibition at 1500 g/ha / inhibition at 3000 g/ha: Oryza sativa, 216 h, read-out: Percent Inhibition, Rice; for inhibition at 375 g/ha: 0.375 Kg/Ha; for inhibition at 750 g/ha: 0.75 Kg/Ha; for inhibition at 1500 g/ha: 1.5 Kg/Ha; for inhibition at 3000 g/ha: 3.0 Kg/Ha
Experimental: as §3, §4

Monochoria vaginalis = test: Field transplant rice test, applied 0 DAT, MV; assay type: in vivo; conditions: Pontederia vaginalis, 0 h, read-out: Percent Inhibition, MV; for inhibition at 375 g/ha: 0.375 Kg/Ha; for inhibition at 750 g/ha: 0.75 Kg/Ha; for inhibition at 1500 g/ha: 1.5 Kg/Ha; for inhibition at 3000 g/ha: 3.0 Kg/Ha
Experimental: as §2, §3

For `CCCCOc1cccc(CC)c1N(CC)C(=O)CCl` [Example 2, N-ethyl-2'-n-butoxy-6'-ethyl-2-chloroacetanilide], the inhibition at 280 g/ha (Sagittaria trifolia [1]) was 30%, the inhibition at 560 g/ha (Sagittaria trifolia [1]) was 25% and the inhibition at 1120 g/ha (Sagittaria trifolia [1]) was 70%. The inhibition at 2240 g/ha (Sagittaria trifolia [1]) was 55%, the inhibition at 280 g/ha (Cyperus serotinus [2]) was 100% and the inhibition at 560 g/ha (Cyperus serotinus [2]) was 100%. The inhibition at 1120 g/ha (Cyperus serotinus [2]) was 100%, the inhibition at 2240 g/ha (Cyperus serotinus [2]) was 100% and the inhibition at 280 g/ha (Rice [3]) was 0%. It also gave an inhibition at 560 g/ha (Rice [3]) of 10%, an inhibition at 1120 g/ha (Rice [3]) of 15% and an inhibition at 2240 g/ha (Rice [3]) of 25%.

`CCCCOc1cccc(CC)c1N(C)C(=O)CCl` [Example 1, N-methyl-2'-n-butoxy-6'-ethyl-2-chloroacetanilide] gave an inhibition at 375 g/ha (Sagittaria trifolia [4]; 3 WAT) of 50%, an inhibition at 375 g/ha (Sagittaria trifolia [4]; 5 WAT) of 23% and an inhibition at 375 g/ha (Sagittaria trifolia [4]; 7 WAT) of 18%. It also gave an inhibition at 750 g/ha (Sagittaria trifolia [4]; 3 WAT) of 43%, an inhibition at 750 g/ha (Sagittaria trifolia [4]; 5 WAT) of 33% and an inhibition at 750 g/ha (Sagittaria trifolia [4]; 7 WAT) of 13%. For the same compound, the inhibition at 1500 g/ha (Sagittaria trifolia [4]; 3 WAT) was 40%, the inhibition at 1500 g/ha (Sagittaria trifolia [4]; 5 WAT) was 13% and the inhibition at 1500 g/ha (Sagittaria trifolia [4]; 7 WAT) was 7%. The inhibition at 3000 g/ha (Sagittaria trifolia [4]; 3 WAT) was 72%, the inhibition at 3000 g/ha (Sagittaria trifolia [4]; 5 WAT) was 43% and the inhibition at 3000 g/ha (Sagittaria trifolia [4]; 7 WAT) was 38%. For the same compound, the “selective control of ST in rice” value (Sagittaria trifolia [1]; 0.56 kg/ha) was “positive selective control”, the inhibition at 280 g/ha (Sagittaria trifolia [1]) was 75% and the inhibition at 560 g/ha (Sagittaria trifolia [1]) was 85%. For the same compound, the inhibition at 1120 g/ha (Sagittaria trifolia [1]) was 85%, the inhibition at 2240 g/ha (Sagittaria trifolia [1]) was 90% and the inhibition at 280 g/ha (Cyperus serotinus [2]) was 85%. For the same compound, the inhibition at 560 g/ha (Cyperus serotinus [2]) was 100%, the inhibition at 1120 g/ha (Cyperus serotinus [2]) was 100% and the inhibition at 2240 g/ha (Cyperus serotinus [2]) was 100%. It also gave an inhibition at 375 g/ha (Cyperus serotinus [5]; 2 WAT) of 77%, an inhibition at 375 g/ha (Cyperus serotinus [5]; 4 WAT) of 73% and an inhibition at 375 g/ha (Cyperus serotinus [5]; 6 WAT) of 50%. For the same compound, the inhibition at 750 g/ha (Cyperus serotinus [5]; 2 WAT) was 62%, the inhibition at 750 g/ha (Cyperus serotinus [5]; 4 WAT) was 53% and the inhibition at 750 g/ha (Cyperus serotinus [5]; 6 WAT) was 25%. For the same compound, the inhibition at 1500 g/ha (Cyperus serotinus [5]; 2 WAT) was 92%, the inhibition at 1500 g/ha (Cyperus serotinus [5]; 4 WAT) was 83% and the inhibition at 1500 g/ha (Cyperus serotinus [5]; 6 WAT) was 73%. It also gave an inhibition at 3000 g/ha (Cyperus serotinus [5]; 2 WAT) of 95%, an inhibition at 3000 g/ha (Cyperus serotinus [5]; 4 WAT) of 99% and an inhibition at 3000 g/ha (Cyperus serotinus [5]; 6 WAT) of 100%. It also gave an inhibition at 280 g/ha (Rice [3]) of 5%, an inhibition at 560 g/ha (Rice [3]) of 0% and an inhibition at 1120 g/ha (Rice [3]) of 15%. For the same compound, the inhibition at 2240 g/ha (Rice [3]) was 20%, the inhibition at 375 g/ha (Echinochloa crus-galli; 2 WAT) was 97% and the inhibition at 375 g/ha (Echinochloa crus-galli; 4 WAT) was 100%. For the same compound, the inhibition at 375 g/ha (Echinochloa crus-galli; 6 WAT) was 100%, the inhibition at 750 g/ha (Echinochloa crus-galli; 2 WAT) was 98% and the inhibition at 750 g/ha (Echinochloa crus-galli; 4 WAT) was 100%. It also gave an inhibition at 750 g/ha (Echinochloa crus-galli; 6 WAT) of 98%, an inhibition at 1500 g/ha (Echinochloa crus-galli; 2 WAT) of 100% and an inhibition at 1500 g/ha (Echinochloa crus-galli; 4 WAT) of 100%. For the same compound, the inhibition at 1500 g/ha (Echinochloa crus-galli; 6 WAT) was 100%, the inhibition at 3000 g/ha (Echinochloa crus-galli; 2 WAT) was 98% and the inhibition at 3000 g/ha (Echinochloa crus-galli; 4 WAT) was 100%. For the same compound, the inhibition at 3000 g/ha (Echinochloa crus-galli; 6 WAT) was 100%, the inhibition at 375 g/ha (Rice [6]; 3 WAT) was 13% and the inhibition at 375 g/ha (Rice [6]; 5 WAT) was 7%. It also gave an inhibition at 375 g/ha (Rice [6]; 7 WAT) of 7%, an inhibition at 750 g/ha (Rice [6]; 3 WAT) of 7% and an inhibition at 750 g/ha (Rice [6]; 5 WAT) of 2%. It also gave an inhibition at 750 g/ha (Rice [6]; 7 WAT) of 0%, an inhibition at 1500 g/ha (Rice [6]; 3 WAT) of 10% and an inhibition at 1500 g/ha (Rice [6]; 5 WAT) of 7%. It also gave an inhibition at 1500 g/ha (Rice [6]; 7 WAT) of 5%, an inhibition at 3000 g/ha (Rice [6]; 3 WAT) of 15% and an inhibition at 3000 g/ha (Rice [6]; 5 WAT) of 15%. The inhibition at 3000 g/ha (Rice [6]; 7 WAT) was 10%, the “rate at which safety in rice is maintained” value (Rice [6]; maximum test rate) was no less than 3.0 kg/ha and the inhibition at 375 g/ha (Monochoria vaginalis; 2 WAT) was 98%. It also gave an inhibition at 375 g/ha (Monochoria vaginalis; 4 WAT) of 100%, an inhibition at 375 g/ha (Monochoria vaginalis; 6 WAT) of 93% and an inhibition at 750 g/ha (Monochoria vaginalis; 2 WAT) of 100%. For the same compound, the inhibition at 750 g/ha (Monochoria vaginalis; 4 WAT) was 99%, the inhibition at 750 g/ha (Monochoria vaginalis; 6 WAT) was 97% and the inhibition at 1500 g/ha (Monochoria vaginalis; 2 WAT) was 100%. It also gave an inhibition at 1500 g/ha (Monochoria vaginalis; 4 WAT) of 100%, an inhibition at 1500 g/ha (Monochoria vaginalis; 6 WAT) of 100% and an inhibition at 3000 g/ha (Monochoria vaginalis; 2 WAT) of 100%. It also gave an inhibition at 3000 g/ha (Monochoria vaginalis; 4 WAT) of 100% and an inhibition at 3000 g/ha (Monochoria vaginalis; 6 WAT) of 100%.

From patent US4345938A, “Herbicidal 2-haloacetanilides” (Monsanto Company, priority 1980, dated 1982)
